Data: patent US20170055533A1, “AROMATIC PHOSPHATE ESTERS AS AGROCHEMICAL FORMULATION COMPONENT” (priority 2011, published 2017)
Entries after “also recorded” stand apart in the source; their conditions may differ.

How the values were obtained:
Assay type in all cases: in vivo
[1] = test system: Tetranychus urticae; experiment: Mortality of two spotted spider mite on French bean plants, abamectin with and without phosphate ester; details: for mortality of Tetranychus urticae, phosphate ester composition without abamectin: 0.14% v/v phosphate ester, no abamectin present; for % mortality of Tetranychus urticae: phosphate ester 0.14% v/v, 10 days, larva and adults averaged, lower side of leaves
Description: The efficacy of the aromatic phosphate ester Phosflex® 362 (2-ethylhexyl diphenyl phosphate) as an adjuvant in a composition containing abamectin was tested and compared to the efficacy of an abamectin composition without the Phosflex® 362 present, and to the efficacy of an abamectin composition containing triethyl phosphate. The Phosflex® 362 and the triethyl phosphate were present at 0.14% v/v in the abamectin compositions. The surfactants tristyrylphenol ethoxylate phosphate ester, sodium salt and tristyrylphenol ethoxylate were present in all the abamectin compositions tested.
Two week old French bean (Phaseolus vulgaris) plants were infested with a mixed population of two spotted spider mite Tetranychus urticae. One day after infestation the plants were treated with the test compositions, with a track sprayer from the top with a rate of 200 litres per hectare. Plants were incubated in the greenhouse for 10 days and the evaluation was done on mortality against Larva and Adults, just on the lower side (untreated) of the leaves. Each experiment was replicated twice and the results were averaged. The mortality against Larva and Adults was then averaged.

[2] = test system: Chenopodium album (CHEAL), Abutilon theophrasti (ABUTH), Setaria viridis (SETVI) and Digitaria sanguinalis (DIGSA); experiment: Glasshouse weed kill test, nicosulfuron with and without adjuvants; details: conclusion from Table 3
Description: The efficacy of the aromatic phosphate esters tricresyl phosphate, Phosflex® 362 (2-ethylhexyl diphenyl phosphate) and triphenyl phosphate were tested in a glasshouse against four weed species using the herbicide nicosulfuron. An agrochemical composition was prepared containing 0.5% v/v of the adjuvant Atplus® 411 F in a track sprayer, and was applied at a volume of 200 litres per hectare. The other adjuvants were tested at a arte of 0.2% v/v. Nicosulfuron was applied at a rate of either 30 or 60 grams of pesticide per hectare to weeds which had been grown to the 1.3 or 1.4 leaf stage. The weed species were Chenopodium album (CHEAL), Abutilon theophrasti (ABUTH), Setaria viridis (SETVI) and Digitaria sanguinalis (DIGSA).
Each spray test was replicated three times. The efficacy of the herbicide was assessed visually and expressed as a percentage of the leaf area killed. Samples were assessed at time periods of 14 and 21 days following application. The results shown in Table 3 below are mean averages over the two rates of nicosulfuron, three replicates, four weed species and the two assessment timings, and are compared to the efficacy of nicosulfuron in the absence of adjuvant and nicosulfuron in the presence of the known tank mix adjuvant Atplus® 411F.

[3] = test system: Septoria tritici; experiment: Septoria tritici on wheat plants, cyproconazole with and without phosphate ester adjuvants; details: conclusion from Table 2
[4] = test system: Septoria tritici; details: conclusion from Table 1

CCOP(=O)(OCC)OCC [triethyl phosphate]
mortality of Tetranychus urticae, phosphate ester composition without abamectin [1]: no mortality was observed

abamectin
% mortality of Tetranychus urticae ([1]; 0.8 ppm abamectin): 0% | % mortality of Tetranychus urticae ([1]; 3 ppm abamectin): 20% | % mortality of Tetranychus urticae ([1]; 12.5 ppm abamectin): 50%

tricresyl phosphate [tricresylphosphate, reference compound]
efficacy as adjuvant for nicosulfuron (in words) [2]: performing particularly well

CCCCC(CC)COP(=O)(Oc1ccccc1)Oc1ccccc1 (stereo not shown) [Phosflex® 362, 2-ethylhexyldiphenyl phosphate]
efficacy as adjuvant for nicosulfuron (in words) [2]: performing particularly well | mortality of Tetranychus urticae, phosphate ester composition without abamectin [1]: no mortality was observed | efficacy as adjuvant for abamectin (in words) ([1]; conclusion from Table 7): more effective control of Tetranychus urticae than the treatment containing abamectin with no adjuvant present; also recorded: considerably more effective than the alkyl phosphate ester triethyl phosphate | efficacy as adjuvant for cyproconazole (in words) [3]: performed best as an adjuvant out of the compounds tested | efficacy as adjuvant for isopyrazam (in words) [4]: more efficacious as an adjuvant than any of the other compounds tested
